Consider 4 compounds from patent EP4663632A1, “COMPOUNDS USEFUL FOR THE MODULATION OF THE ACTIVITY OF STING” (Sulis Therapeutics ApS, priority 2024, dated 2025).

The target in test [1] is T1, STING (Homo sapiens, UniProt Q86WV6). Briefly: Western Blot analysis for S1 STING ligand antagonism in primary human skin fibroblasts. Type of test: cell-based. Also on record: host or cells: HFF-1 human foreskin fibroblasts. Particulars: 5 µM; 2 h or 1 h before, simultaneously with, or 15 minutes after 0.3 µM diABZI. On the procedure:
To assess whether S1 STING ligands inhibit STING activation, primary human skin fibroblasts (Figure 5) or HFF-1 cells (Figure 6) were treated with various compounds which comprise only an S1 ligand domain and a Linker domain before undergoing Western Blot analysis as described below. Compounds A9, A11, A26 and A30 used in the following experiments share a common S1 ligand, which is also shared by Example compounds 1, 3, 5-29, 33-38.
Cells were incubated with A9 or A11 for 1 or 2 hours before addition of diABZI c3, treated with test compound and diABZI c3 simultaneously, or treated with A9 or A11 after 15 minutes incubation with diABZI c3. As a control, cells were also treated with diABZI c3 alone.
On the technique in general: In western blotting, separated proteins are transferred to a membrane and probed.

In test [2] the target is T1, STING. The test can be described thus: Inhibition of STING-agonist-induced IFN-β and CXCL10 release by Compounds A9 and A11. Also on record: host or cells: HFF-1 human foreskin fibroblasts. Type of test: cell-based. Particulars: 1 to 2 hours prior to, simultaneously with, or 15 minutes after diABZI c3. On the procedure:
HFF-1 cells were also assessed for inhibition of STING-agonist-induced IFN-β and CXCL10 release in cells treated with Compounds A9 and A11. […] In contrast, pre-treating cells for 1 to 2 hours prior to diABZI c3, simultaneous treatment with A9 and diABZI c3, or pre-treating cells for 15 minutes with diABZI c3 followed by A9 treatment led to a decrease in the IFN media concentration to ~100 U/mL. […] In contrast, cells pre-treated for 1 to 2 hours prior to diABZI c3, simultaneous treatment with A9 and diABZI c3, or pre-treating cells for 15 minutes with diABZI c3 followed by A9 treatment led to a decrease in the CXCL10 media concentration to […] (Figure 9B, unfiled bars).
In contrast, pre-treating cells for 1 to 2 hours prior to diABZI c3, simultaneous treatment with A11 and diABZI c3, or pre-treating cells for 15 minutes with diABZI c3 followed by A11 treatment led to a decrease in the IFN media concentration to -10 - 20 U/mL. […] In contrast, cells pre-treated for 1 to 2 hours prior to diABZI c3, simultaneous treatment with A11 and diABZI c3, or pre-treating cells for 15 minutes with diABZI c3 followed by A11 treatment led to a decrease in the CXCL10 media concentration to -10 - 20 pg/mL (Figure 9B; filled bars).

The target of test [3] is T1, STING. Briefly: Western Blot analysis for STING degradation in H596 cells. Type of test: cell-based. The following applies: 24h; reference protein beta-actin. As for the experimental part: (§1) For cell lysing for Western Blot analysis cell culture plates were brought to ice, supernatant was removed by aspiration and cells washed 2x in ice-cold DPBS. Cells were lysed in 65 µL of RIPA buffer supplemented with cOmplete ULTRA Tablets protease inhibitor cocktail, PIERCE Phosphatase inhibitor mini tablet, Benzonase and 10mM NaF for 20 min on ice. Lysates were collected, cleared by centrifugation (13000xg for 10 min at 4°C). Samples were either analysed directly or stored at -80°C until analysis.
(§2) For Western Blotting, total protein concentration in each lysate was determined using PIERCE Gold BCA Assay kit according to manufactures protocol. 6 µg of total protein was mixed with 2x Laemmli buffer containing DTT, boiled for 5 min at 95°C, cooled on ice and loaded into each well of a 4-20% Criterion TGX gel. Proteins were separated by electrophoresis, by running for 1h at 150V. After separation proteins were blotted onto a PVDF membrane by semi-dry transfer using Trans-Blot turbo system at pre-defined BioRad MIDI protocol; 25V, 1A (fixed) for 30 min. Membranes were blocked for 1h in 5% skim milk in TBS-T20 on a rocker at room temperature followed by washing and exposure to primary antibodies against human STING 1:1000 (Cell Signalling, #13647) or loading controls Vinculin 1:1000 (Cell Signalling, #13901) or beta-Actin 1:10000 (Sigma, A5441) all diluted in 5% BSA in TBS-T20. Membranes were probed over night at 4°C on a rocker. Membranes were washed 3x in TBS-T20 followed by exposure to secondary HRP-conjugated anti-rabbit antibody or HRP-conjugated anti-mouse antibody diluted 1:10000 in 5% skim milk in TBS-T20 as appropriate. Membranes were incubated for 1h at room temperature on a rocker, then washed 3x in TBS-T20.
(§3) For generating DC50 values, the intensity of individual bands was measured using imaged and expression levels were calculated as a ratio of STING intensities vs. Reference protein intensities and normalized to DMSO control. The normalized ratios were plotted on a XY curve in GraphPad Prism where DC50 was estimated using a 4-parameter non-linear regression fitting curve.
To assess STING degradation in H596 cells (ATCC, HTB-178) cells were seeded at a density of 100.000 cells/well in 24-well Nunclon Delta surface treated culture plate in RPMI-1640 growth medium (supplemented with 10% FBS, 1% Pen-strep). Cells were incubated over-night at 37°C 5% CO2 to allow adhesion. Next day growth medium was renewed and a 5x concentration of test compounds (2.5% DMSO) diluted in growth medium were added to the appropriate well. Final DMSO concentration was 0.5%. Cell culture plates were returned to the incubator for additional 24h. Final test compound concentrations were 0.22 µM, 0.67 µM, 2 µM and 6 µM.
For cell lysis, western blotting and data analysis, the methods described above for HFF-1 cells were applied.

In test [4] the target is T1, STING. Briefly: Inhibition of STING-agonist-induced IFN-β release in H596 cells (H596 STING inhibition assay). Type of test: cell-based. The following applies: 24h with compound, then 0.3 µM GSK STING agonist, 6h; ELISA. On the procedure:
Cell supernatants were analysed for IFN-β release using DuoSet human IFN-β ELISA (R&D systems, DY-814) following manufactures protocol except using 96-well, half-volume plates from Corning and subsequently use half volume for all steps throughout the protocol. In brief, plates were coated o/n with a 130x dilution of capturing antibody in PBS. Wells were washed 3x with PBS-T20 followed by blocking with 1% BSA diluted in TBS-T20 for 1h. Wells were washed 3x with PBS-T20 and standards (n=2) and samples (n=3) were added to the plate and incubated for 2h at rt. Wells were washed 3x with PBS-T20 and detection antibody diluted 1:60 in 1% BSA in PBS was added to each well and incubated for 2h at rt. Plates were washed 3x with PBS-T20 and Streptavidin-HRP diluted 1:40 in 1% BSA in PBS was added pr well and incubated for 30 min at rt. The wells were washed 4x with PBS-T20 and TMB One Substrate (Promega) was added and incubated for 5-10 min in the dark. When fully developed, 1 mmol/L Sulfuric acid was added to stop the reaction. Signals were measured using BioTek Synergy H1 plate reader at 450nm and 570nm (reference).
Raw data values were quantified based on the standard curve using blank subtracted Δ450nm-570nm values generated using the Gen5 software connected to the plate reader. Concentrations were plotted into GraphPad Prism to calculate EC50 values using a 4-parameter non-linear regression fitting curve, bottom constrains set for >0.
To determine cellular effects of test compounds, we assessed inhibition of STING-agonist-induced IFN-β release in H596 cells (ATCC, HTB-178). Cells were seeded at a density of 25.000 cells/well in 96-well Nunclon Delta surface treated culture plate in RPMI-1640 growth medium (supplemented with 10% FBS, 1% Pen-strep). Cells were incubated over-night at 37°C 5% CO2 to allow adhesion. Next morning growth medium was renewed and a 10x concentration, 3-step dilution series of test compounds diluted in growth medium (5% DMSO) were added to the appropriate well. Final DMSO concentration was 0.5%. Cells were further incubated for 24h followed by incubation with a 10x concentration of GSK STING agonist (CAS number: 2138299-34-8), final concentration was 0.3 µM. Cells culture plates were further incubated, and supernatants were harvested after 6h and immediately stored at -20°C until determination of IFN-β release.
For ELISA and data analysis, the methods described above for HFF-1 cells were applied.
On the technique in general: In an ELISA, binding on a coated surface is turned into a signal by an enzyme label.

Test [5] deals with C-terminal domain (CTD) of human STING (Homo sapiens, UniProt Q86WV6). The test can be described thus: STING binding FP assay III. Also on record: recombinant human STING protein (155-379). Particulars: 10 nM STING (FP assay III according to the text); read-out: STING binding FP assay II, IC50. The method, boiled down:
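FP competition assay using 10 nM recombinant human STING (155-379) and 4 nM fluorescein-labelled STING ligand in 150 mM NaCl, 50 mM HEPES pH 7.5, 1 mM DTT with Tween-20. Plates were incubated 20 min at room temperature and read at Ex 485/Em 528 nm. IC50 values came from four-parameter fits.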

Test [6] deals with T1, STING. Briefly: Western Blot analysis for STING degradation (DC50) in HFF-1 cells. Type of test: cell-based. Also on record: host or cells: HFF-1 human foreskin fibroblasts. The following applies: 24h; reference protein vinculin. On the procedure:
To assess STING degradation in human foreskin fibroblasts HFF-1 cells (ATCC, SCRC-1041) cells were seeded at a density of 60.000 cells/well in 24-well Nunclon Delta surface treated culture plate in DMEM growth medium (supplemented with 10% FBS, 1% Pen-strep). Cells were incubated over-night at 37°C 5% CO2 to allow adhesion. Next day growth medium was renewed and a 5x concentration of test compounds (2.5% DMSO) diluted in growth medium were added to the appropriate well. The final DMSO concentration were 0.5%. Cell culture plates were returned to the incubator for additional 24h.
as §1, §2, §3

pEC50, pIC50: −log10 of the molar value. A value given as a limit tells only on which side of the number the result lay.

C-terminal domain (CTD) of human STING, sequence (Q86WV6 155-379): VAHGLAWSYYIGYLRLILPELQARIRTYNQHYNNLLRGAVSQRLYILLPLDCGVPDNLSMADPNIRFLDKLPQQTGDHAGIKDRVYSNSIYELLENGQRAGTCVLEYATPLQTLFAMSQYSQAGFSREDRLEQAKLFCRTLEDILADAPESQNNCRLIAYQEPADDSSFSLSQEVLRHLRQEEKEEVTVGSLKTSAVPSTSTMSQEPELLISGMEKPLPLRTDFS
T1 sequence (Q86WV6 whole entry, the tested form may be a part): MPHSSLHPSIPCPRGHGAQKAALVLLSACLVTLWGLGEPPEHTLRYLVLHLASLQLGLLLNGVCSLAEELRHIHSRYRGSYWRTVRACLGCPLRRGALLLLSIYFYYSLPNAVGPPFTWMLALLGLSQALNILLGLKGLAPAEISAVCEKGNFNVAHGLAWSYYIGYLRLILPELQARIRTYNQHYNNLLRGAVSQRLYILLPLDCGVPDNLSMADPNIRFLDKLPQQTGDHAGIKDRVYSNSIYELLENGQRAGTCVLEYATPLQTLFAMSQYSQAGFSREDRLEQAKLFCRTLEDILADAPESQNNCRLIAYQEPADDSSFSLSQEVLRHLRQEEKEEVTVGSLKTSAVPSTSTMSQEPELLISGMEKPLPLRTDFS

On to `CCn1nc(C)cc1C(=O)N=c1n(C)c2cc(C(N)=O)ccc2n1CCC(CCn1c(=NC(=O)c2cc(C)nn2CC)n(C)c2cc(C(N)=O)ccc21)OCC(=O)N1CCc2cc(OC)ccc2C1` (centres unmarked) [Example A9, 1-(5-{5-Carbamoyl-2-[(1-ethyl-3-methyl-5-pyrazolyl)carbonylimino]-3-methyl-2,3-dihydro-1H-1,3-benzimidazol-1-yl}-3-[2-(6-methoxy-1,2,3,4-tetrahydro-2-isoquinolyl)-2-oxoethoxy]pentyl)-2-[(1-ethyl-3-methyl-5-pyrazolyl)carbonylimino]-3-methyl-2,3-dihydro-1H-1,3-benzimidazole-5-carboxamide], for which, on STING [1], the LC3B lipidation result is “reduced LC3B lipidation”, the “P-STING intensity (activation of STING)” value was “reduced intensity of P-STING” and the P-TBK1 intensity entry is “reduced P-TBK1 intensity”. For the same compound, the IFN media concentration on STING [2] (5 µM) is on record as ~ 100 U/mL. On STING [2] (A9 5 µM), the CXCL10 media concentration is ~ 30 U/mL.

For `CCn1nc(C)cc1C(=O)N=c1n(C)c2cc(C(N)=O)ccc2n1CCC(CCn1c(=NC(=O)c2cc(C)nn2CC)n(C)c2cc(C(N)=O)ccc21)OCC(=O)NCCOCCOCCOCCOCCC(=O)N1CCN(C(=O)CCC(=O)NCCCCOc2cc(-c3scnc3C)ccc2CNC(=O)[C@@H]2C[C@@H](O)CN2C(=O)[C@@H](NC(=O)C2(F)CC2)C(C)(C)C)CC1` (some centres unmarked) [Example 19], the DC50 (commonly the concentration at which degradation of the target reaches its halfway point) at STING [3] is under 200 nM. The pEC50 (commonly −log10 of the EC50, conventionally taken in molar units) at STING [4] was over 6.70. Also, the pIC50 (commonly the negative decadic logarithm of the IC50, by convention in mol/L) in test [5] is 8.15.

With `CCn1nc(C)cc1C(=O)N=c1n(C)c2cc(C(N)=O)ccc2n1CCC(CCn1c(=NC(=O)c2cc(C)nn2CC)n(C)c2cc(C(N)=O)ccc21)OCC(=O)NCCOCCOCCOCCOCCC(=O)NCCCCC(=O)N[C@H]1C[C@@H](C(=O)N[C@@H]2CCCc3ccccc32)N(C(=O)[C@@H](NC(=O)[C@H](C)NC)C2CCCCC2)C1` (some centres unmarked) [Example 10], at STING [4], the pEC50 is 6.00 to 6.70. In addition, the DC50 at STING [6] was under 200 nM. The pIC50 in test [5] is 8.35.

With `CCn1nc(C)cc1C(=O)N=c1n(C)c2cc(C(N)=O)ccc2n1CCC(CCn1c(=NC(=O)c2cc(C)nn2CC)n(C)c2cc(C(N)=O)ccc21)OCC(=O)NCCOCCOCCOCCOCCC(=O)N1CCN(C(=O)CCOCCC(=O)NCCCCOc2cc(-c3scnc3C)ccc2CNC(=O)[C@@H]2C[C@@H](O)CN2C(=O)[C@@H](NC(=O)C2(F)CC2)C(C)(C)C)CC1` (some centres unmarked) [Example 20], on STING [3], the DC50 is under 200 nM. Moreover, the pEC50 at STING [4] was over 6.70. The pIC50 in test [5] is 8.57.
